The values that follow come from patent US20250325576A1, “COMPOSITIONS FOR USE IN CARTILAGE BREAKDOWN” (Société des Produits Nestlé S.A., priority 2013, published 2025).

Holding throughout (type): cell-based
Common to all, as to details: 1.5 μM each, 3 days

One experiment deals with ADAMTS-5. Kind of experiment: ADAMTS-5 mRNA expression relative to GAPDH, bovine primary chondrocytes in alginate beads (real-time PCR). On the technique in general: Real-time PCR tracks product formation cycle by cycle.
The subject of another experiment is MMP-13. Kind of experiment: MMP-13 mRNA expression relative to GAPDH, bovine primary chondrocytes in alginate beads (real-time PCR).
The subject of the next experiment is COX-2. Kind of experiment: COX-2 mRNA expression relative to GAPDH, bovine primary chondrocytes in alginate beads (real-time PCR).
Setting [1] is: disease conditions (IL1a 10 ng/ml), vs IL1a.
Where [2] appears, read: normal conditions (absence of IL1a), vs CTL-.

Procedure for ADAMTS-5: (§1) The skin was removed from the foot. The articulation was opened transversally. Intra articular ligaments were transected. The opened articulation was washed with phosphate buffered saline. With a scalpel blade, full thickness slices of cartilage were dissected out and collected in DMEM high glucose with 10 mM hepes and 1% Penicillin-Streptomycin. Slices of cartilage were washed in DMEM high glucose with 10 mM hepes and 1% Penicillin-Streptomycin.
(§2) Cartilage was then digested successively by 0.5 mg/ml of hyluronidase during 30 minutes, 1.0 mg/ml of pronase E during 60 minutes and 1.0 mg/ml of collagenase overnight under slow agitation.
(§3) After the enzymatic incubation, the cell suspension was filtered through a 70 μm cell strainer to separate cell cluster and remove tissue debris. The cell suspension was centrifuged to pellet the cells. […]
(§4) Total RNA was isolated from pool of 40 beads and isolated using RNeasy kit from Qiagen. cDNA was obtained by reverse transcription of RNA with the Primescript 1st strand cDNA Synthesis kit from Takara. mRNA expression of ADAMTS-5, COX-2, MMP-13 and GAPDH were quantified in real-time PCR (SYBR Green)
(§5) Data were expressed as fold change in gene expression compared to negative control (cells cultured in complete medium).
(§6) Data were expressed as median±S.E.Median (2 experiments of 3 replicates each). […]
Procedure for COX-2: as §1, §2, §3, §4, §5, §6
Procedure for MMP-13: as §1, §2, §3, §4, §5, §6

As for `O=c1c(O)c(-c2ccc(O)c(O)c2)oc2cc(O)cc(O)c12` [Quercetin, quercetin], the “ADAMTS-5 mRNA expression relative to GAPDH” value in the experiment on ADAMTS-5 (setting [1]) and in the experiment with ADAMTS-5 (setting [2]) was “decrease expression of ADAMTS-5” in each case. Further, the “MMP-13 mRNA expression relative to GAPDH” value in the experiment on MMP-13 (setting [1]) and in the experiment on MMP-13 (setting [2]) was “decrease expression of MMP-13” throughout. Further, the “COX-2 mRNA expression relative to GAPDH” value is listed as “decrease expression of COX-2” with COX-2 (setting [1]) and “reduce expression of COX-2” in the experiment with COX-2 (setting [2]).
